“And” between values parts separate entries of the source, which are not always exact repeats. Identical values can stand only once.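 Five concentrations, 48 hours, 96-well plates. The concentration for 50% growth inhibition is given as GI50. TGI denotes the concentration required for complete inhibition of growth.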

Assay in all cases: growth of human tumour cells (NCI), 48 h
The subject of experiment [1] is COLO 205 colon.
Experiment [2] has as its system SK-OV-3 ovarian.
Experiment [3] has as its system SR leukemia.
The subject of experiment [4] is M14 melanoma.
For experiment [5], the system named is SW-620 colon.
The test system of experiment [6] is 786-0 renal.
Experiment [7] relates to SNB-19 CNS.
In experiment [8] the test system is U251 CNS.
Experiment [9] concerns MDA-MB-435.
For experiment [10], the system named is MCF7 breast.

For `N/C(=N\NS(=O)(=O)c1ccccc1)Oc1ccc(Cl)cc1`, the TGI in [1] is > 100 µM; in experiment [2], > 100 µM; in experiment [3], > 100 µM; in experiment [4], > 100 µM; in [5] it was 19.5 µM; in experiment [6] it was > 100 µM. Further, the TGI in [7] and in experiment [8] was > 100 µM throughout.
Turning to `CCN1CCN(c2nc(NNC(=O)Cc3ccccc3)nc(N3CCN(C(c4ccccc4)c4ccccc4)CC3)n2)CC1`, the GI50 in [1] is 1880 nM; in experiment [9] it was 1750 nM; in experiment [2], 2.09 µM; in [3], 1920 nM; in [4], 1830 nM; in experiment [5], 1870 nM. The GI50 in experiment [6] was 1740 nM; in experiment [7] it was 3350 nM; in experiment [8], 1780 nM. Also, the TGI in experiment [1] was found to be 3.82 µM; in experiment [9] it was 3.2 µM; in experiment [2], 4.48 µM; in [3] it was 5.31 µM; in experiment [4] it was 3.41 µM; in experiment [5], 3.69 µM. Besides, the TGI in experiment [6] was 3.14 µM; in [7], 11.7 µM; in experiment [8], 3.6 µM.
As for `Cn1cnc([N+](=O)[O-])c1Sc1ccccn1`, the TGI in experiment [1], in experiment [2], in experiment [3], in [4], in [5] and in [6] was > 100 µM each time. Also, the TGI in [7] and in experiment [8] was > 100 µM each time.
As for `C=CN1C(=O)OC(c2ccccc2)C1c1ccccc1` (stereo not drawn), the GI50 in experiment [1] was > 100000 nM; in [2], > 100 µM; in [4] it was > 100000 nM; in [6], > 100000 nM; in [7], > 100000 nM. Besides, the TGI in experiment [1], in [2], in experiment [3], in experiment [4], in experiment [5] and in experiment [6] was > 100 µM each time. For the same compound, the TGI in [7] and in experiment [8] was > 100 µM throughout.
On to `CCOc1ccc2[nH]c3c(C)c4cc[n+](C)cc4c(C)c3c2c1`, for which the GI50 in experiment [1] is 791 nM and 1600 nM; in experiment [3], 1130 nM and 2690 nM; in [7], 297 nM and 707 nM. Besides, the TGI is 2.62 µM and 4.69 µM in [1]; 60.6 µM and 56.3 µM in experiment [2]; 13.7 µM and > 62.5 µM in experiment [3]; 30.5 µM and 58.5 µM in [4]; 15.6 µM and > 83.8 µM in [5]; 1.62 µM and 2.43 µM in [6]. Moreover, the TGI was 1.26 µM and 3.37 µM in [7]; 1.08 µM and 1.15 µM in experiment [8].
`Cc1c[nH]c2c1C13CC1CN(C(=O)c1cc4cc(NC(=O)c5cc6ccccc6o5)ccc4[nH]1)C3=CC2=O` (stereo not drawn): the GI50 in [2], in experiment [5] and in [10] was > 1.17 ng/mL in each case. In addition, the TGI is 0.218 µg/mL in experiment [2]; < 0.001 µM in experiment [3]; < 0.001 µM in experiment [4]; 1.07 nM and 0.00324 µg/mL in experiment [5]; < 0.001 µM in experiment [6]; 0.00481 µM in experiment [7]. For the same compound, the TGI in experiment [10] is 11.7 µg/mL; in experiment [8], < 0.001 µM.
With `O=c1[nH]cc(CS(=O)(=O)Cc2c[nH]c(=O)[nH]c2=O)c(=O)[nH]1`, the TGI in [1], in experiment [9], in experiment [3], in [4], in experiment [5] and in experiment [6] was > 100 µM each time. Further, the TGI in [7], in experiment [10] and in [8] was > 100 µM in each case.
For the compound `O=C(/C=C/c1ccc(C(F)(F)F)cc1)c1ccc(Nc2nc(NCCO)nc(NCCO)n2)cc1`, the GI50 in experiment [1] was 2050 nM; in [9] it was 3820 nM; in [2], 4 µM; in experiment [3], 2300 nM; in experiment [4], 3960 nM; in experiment [5] it was 1970 nM. Moreover, the GI50 in experiment [6] is 3120 nM; in experiment [10], 1660 nM. For the same compound, the TGI in experiment [1] was 4.22 µM; in experiment [9], 14.2 µM; in experiment [2], 15.1 µM; in experiment [3] it was 7.11 µM; in experiment [4], 17.1 µM; in experiment [5], 4.25 µM. The TGI stood at 10.9 µM in [6] and 5.16 µM in experiment [10].
With `NC(=O)CCC(NC(=O)OCc1ccccc1)C(=O)OCC(=O)c1ccccc1` (stereo not drawn), the GI50 in experiment [1] was > 100000 nM; in experiment [9], > 100000 nM; in [2], > 100 µM; in experiment [3], > 100000 nM; in [5], > 100000 nM; in [6], > 100000 nM. Also, the GI50 in experiment [7], in experiment [10] and in [8] was > 100000 nM throughout. Further, the TGI in [1], in experiment [9], in experiment [2], in experiment [3], in experiment [5] and in experiment [6] was > 100 µM each time. For the same compound, the TGI in experiment [7], in experiment [10] and in experiment [8] was > 100 µM throughout.
`CN(C(=O)C1(C(=O)C=[N+]=[N-])CC1)c1ccccc1`: the TGI in experiment [1], in experiment [9], in [3], in experiment [4], in experiment [5] and in [6] was > 100 µM throughout. The TGI in experiment [7], in [10] and in experiment [8] was > 100 µM throughout.
Take `CC1(C)CCC[C@]23C(=O)O[C@](O)(C(=O)C4=C[C@@](C)(/C=C/CCCc5ccc6ccc7cccc8ccc5c6c78)CC[C@@]42O)[C@@H]13`: the GI50 in [1] is 183 nM; in [9], 173 nM; in experiment [2] it was 0.178 µM; in experiment [3], 292 nM; in [4], 196 nM; in experiment [5], 179 nM. In addition, the GI50 in experiment [6] was 182 nM; in experiment [7], 188 nM; in experiment [8] it was 170 nM. The TGI in experiment [1] was 0.383 µM; in [9], 0.323 µM; in [2], 0.324 µM; in experiment [4], 0.409 µM; in experiment [5], 0.379 µM; in experiment [6] it was 0.343 µM. Besides, the TGI came to 0.414 µM in experiment [7] and 0.344 µM in [8].

Values taken from PubChem BioAssay (NCI).
